From US7820829B2, “Bisbenzisoselenazolonyl derivatives having antineoplastic, anti-inflammatory and antithrombotic activities as well as their use” (Peking University, priority 2001, dated 2010)

How the values were obtained:
[1] = system: thrombosis; assay: Electrically induced thrombosis in rat neck artery (OT value); format: in vivo; conditions: male SD rats, oral 30 mg/kg, 1 hour after administration; electricity 3 mA, 180 s
Method: Male SD rats (300-400 g) were randomized into a no-treatment control group (0.25% CMC), an ASA reference group (0.25% CMC, a few Tween-80) and three treatment groups (the compounds E001, E002 and E003). There are 5 animals in each group. The inventive compounds and reference drugs were orally administered respectively in amount of 30 mg/kg. The animals were anesthetized with urethane after 1 hour of the administration. The neck artery was separated surgically and OT value was measured (the stimulating conditions: electricity, 3 mA; time, 180 s).

[2] = system: xylene-induced ear oedema; assay: Xylene-induced ear oedema in mice; format: in vivo; conditions: oral; for Inhibiting rate (%) (to aspirin): relative to aspirin 200 mg/kg; for Inhibiting rate (%) (to indomethacin): relative to indomethacin 22 mg/kg
Method: The anti-inflammatory effects of the test compounds E001, E002 and E 003 were evaluated in xylene-induced ear oedema in mice. The mice were randomized into a no-treatment control group, three reference groups and three treatment groups. There are 10 animals in each group. The test compounds, saline and reference drugs (indomethacin, Aspirin and Ebselen) were orally administered respectively. Ear oedema was induced by topical administration of xylene ([…] per ear) to the inner surface of the right ear after 1 hour of the administration. After 2 hours, the mice were killed. The change in the ear's weight with diameter of 8 mm was measured with a precision micrometer. The inhibiting rate of each compound to the xylene-induced ear oedema was calculated in accordance with the ear weight and the results were listed in Table 7.
The procedure described in Example 8 was repeated. And the results of the experiment are shown by the following table: […]

[3] = system: HL-60; assay: E003 in combination with other antineoplastic agents on growth of cancer cell; format: cell-based, human; conditions: HL-60, 24 h
[4] = system: mice; conditions: cited from earlier work
[5] = system: Lewis lung cancer; assay: Lewis lung cancer transplanted in C57 mice; format: in vivo, C57 mouse; conditions: 2 mg/kg
Method: Lewis lung cancer tissue was resuscitated and subcultured by standard procedure. A piece of Lewis lung cancer was transplanted into the subcutaneous space on the back of each C 57 mouse for inoculation and growth. The Lewis lung cancer cells were dispersed in saline to form a cell suspension of 10^6/ml. 0.2-0.3 ml of the suspension were inoculated into each C57 mouse Mice were randomized into three groups, 10 for each group. In the treatment group, the mice were injected i.p. with […] in amount of 50 mg/kg; in reference group, DDp, 2 mg/kg; and in the negative control group (solvent group), 0.5% CMC-Na. The total volume for every group is the same. […] was administered by i.p. from the second day of transplantation for 3 days until the mice were sacrificed. The C57 mice were disinfected with 70% alcohol. The Lewis lung cancer tissue was removed, photographed and weighted. Then, the subcutaneous tumors were fixed by formaldehyde for further analysis.

With `CC(=O)Oc1ccccc1C(=O)O` [Aspirin] the “Average OT value” [1] was 588.2 s, the Ear oedema % ([2]; Example 8, mice, 200 mg/kg) was 10.63% and the Ear oedema % ([2]; Example 11, mice, 200 mg/kg) was 10.27%.

Work on `COc1ccc2c(c1)c(CC(=O)O)c(C)n2C(=O)c1ccc(Cl)cc1` [Indomethacin] yielded an Ear oedema % ([2]; Example 8, mice, 22 mg/kg) of 19.89% and an Ear oedema % ([2]; Example 11, mice, 22 mg/kg) of 19.12%.

`CC(=O)O[C@H]1C(=O)[C@@]2(C)[C@H]([C@H](OC(=O)c3ccccc3)[C@]3(O)C[C@H](OC(=O)[C@H](O)[C@@H](NC(=O)c4ccccc4)c4ccccc4)C(C)=C1C3(C)C)[C@]1(OC(C)=O)CO[C@@H]1C[C@@H]2O` [Taxol] gave an inhibition at 0.001 µg/mL ([3]; Homo sapiens, Taxol alone 0.001 mg/L, read-out: Inhibition rate) of 2 ± 1% and an inhibition at 0.01 µg/mL ([3]; Homo sapiens, Taxol alone 0.01 mg/L, read-out: Inhibition rate) of 27 ± 7.9%.

In the case of `O=c1c2ccccc2[se]n1-c1ccccc1` [Ebselen, 2-phenyl-(1,2)-benzisoselenazol-3(2H)-on], the Ear oedema % ([2]; Example 8, mice, 50 mg/kg) is reported as 6.22%, the “Inhibiting rate (%) (to aspirin)” value ([2]; Example 8, mice, 50 mg/kg) is reported as 41.48 (to aspirin) % and the “Inhibiting rate (%) (to indomethacin)” value ([2]; Example 8, mice, 50 mg/kg) is reported as 68.72 (to indomethacin) %. For the same compound, the LD50 [4] was > 6810 mg/kg.

With `N.N.[Cl][Pt][Cl]` [DDP, Cisplatin] the Inhibition rate ([3]; Cisplatin alone 0.5 μmol/L) was 0.067 ± 0.014, the Inhibition rate ([3]; Cisplatin alone 5 μmol/L) was 0.12 ± 0.032 and the “tumor volume, average” value [5] was 473 mm^3.

`COc1cccc2c1C(=O)c1c(O)c3c(c(O)c1C2=O)C[C@@](O)(C(=O)CO)C[C@@H]3O[C@H]1C[C@H](N)[C@H](O)[C@H](C)O1` [Adriamycin] gave an inhibition at 0.1 µg/mL ([3]; Homo sapiens, Adriamycin alone 0.1 mg/L, read-out: Inhibition rate) of -7 ± 0.7%.

In the case of `CC(=O)OC[C@H]1OC(OC(C)=O)[C@H](n2[se]c3ccccc3c2=O)[C@@H](OC(C)=O)[C@@H]1OC(C)=O` (stereo partly drawn) [Compound E001, 2-(1,3,4,6-tetra-O-acetyl-2-deoxy-D-glucopyranosyl)-(1,2)-benzisoselenazol-3(2H)-one], the “Average OT value” [1] is reported as 561.2 s, the Ear oedema % ([2]; Example 8, mice, 50 mg/kg) is reported as 4.81% and the “Inhibiting rate (%) (to aspirin)” value ([2]; Example 8, mice, 50 mg/kg) is reported as 54.75 (to aspirin) %. The “Inhibiting rate (%) (to indomethacin)” value ([2]; Example 8, mice, 50 mg/kg) was 75.81 (to indomethacin) %.
